The values below come from patent publication US10584128B2, “Bicyclic dihydropyrimidine-carboxamide derivatives as Rho-Kinase inhibitors” (CHIESI FARMACEUTICI S.p.A., priority 2016, dated 2020).

One experiment concerns the target Rho kinase 2 (Homo sapiens, UniProt O75116). Kind of experiment: In vitro Rho kinase inhibitory activity assay (ADP-Glo kit, Myelin Basic Protein substrate). Type of experiment: biochemical. Conditions: 10 μM ATP, 25° C., read-out: ROCK2 inhibitory activity (Ki, range of activity). On the procedure:
(§1) The effectiveness of compounds of the present invention to inhibit Rho kinase activity can be determined in a 10 μl assay containing 40 mM Tris pH7.5, 20 mM MgCl2 0.1 mg/ml BSA, 50 μM DTT and 2.5 μM peptide substrate (Myelin Basic Protein) using an ADP-Glo kit (Promega). Compounds were dissolved in DMSO such that the final concentration of DMSO was 1% in the assay. All reactions/incubations are performed at 25° C. Compound (2 ul) and either Rho kinase 1 or 2 (4 μl) were mixed and incubated for 30 mins. Reactions were initiated by addition of ATP (4 μl) such that the final concentration of ATP in the assay was 10 μM. After a 1 hour incubation 10 μl of ADP-Glo Reagent was added and after a further 45 minute incubation 20 ul of Kinase Detection Buffer was added and the mixture incubated for a further 30 minutes. The luminescent signal was measured on a luminometer. […] Compounds were tested in dose-response format and the inhibition of kinase activity was calculated at each concentration of compound. To determine the IC50 (concentration of compound required to inhibit 50% of the enzyme activity) data were fit to a plot of % inhibition vs Log10 compound concentration using a sigmoidal fit with a variable slope and fixing the maximum to 100% and the minimum to 0%. To determine the Ki values the Cheng-Prusoff equation was utilized (Ki=IC50/(1+[S]/Km).

For a further experiment, the target named is Rho kinase 1 (Homo sapiens, UniProt Q13464). The description is as above. Type of experiment: biochemical. Conditions: 10 μM ATP, 25° C., read-out: ROCK1 inhibitory activity (Ki, range of activity). Here is the method:
as §1

Sequence of Rho kinase 1 (Q13464 whole entry): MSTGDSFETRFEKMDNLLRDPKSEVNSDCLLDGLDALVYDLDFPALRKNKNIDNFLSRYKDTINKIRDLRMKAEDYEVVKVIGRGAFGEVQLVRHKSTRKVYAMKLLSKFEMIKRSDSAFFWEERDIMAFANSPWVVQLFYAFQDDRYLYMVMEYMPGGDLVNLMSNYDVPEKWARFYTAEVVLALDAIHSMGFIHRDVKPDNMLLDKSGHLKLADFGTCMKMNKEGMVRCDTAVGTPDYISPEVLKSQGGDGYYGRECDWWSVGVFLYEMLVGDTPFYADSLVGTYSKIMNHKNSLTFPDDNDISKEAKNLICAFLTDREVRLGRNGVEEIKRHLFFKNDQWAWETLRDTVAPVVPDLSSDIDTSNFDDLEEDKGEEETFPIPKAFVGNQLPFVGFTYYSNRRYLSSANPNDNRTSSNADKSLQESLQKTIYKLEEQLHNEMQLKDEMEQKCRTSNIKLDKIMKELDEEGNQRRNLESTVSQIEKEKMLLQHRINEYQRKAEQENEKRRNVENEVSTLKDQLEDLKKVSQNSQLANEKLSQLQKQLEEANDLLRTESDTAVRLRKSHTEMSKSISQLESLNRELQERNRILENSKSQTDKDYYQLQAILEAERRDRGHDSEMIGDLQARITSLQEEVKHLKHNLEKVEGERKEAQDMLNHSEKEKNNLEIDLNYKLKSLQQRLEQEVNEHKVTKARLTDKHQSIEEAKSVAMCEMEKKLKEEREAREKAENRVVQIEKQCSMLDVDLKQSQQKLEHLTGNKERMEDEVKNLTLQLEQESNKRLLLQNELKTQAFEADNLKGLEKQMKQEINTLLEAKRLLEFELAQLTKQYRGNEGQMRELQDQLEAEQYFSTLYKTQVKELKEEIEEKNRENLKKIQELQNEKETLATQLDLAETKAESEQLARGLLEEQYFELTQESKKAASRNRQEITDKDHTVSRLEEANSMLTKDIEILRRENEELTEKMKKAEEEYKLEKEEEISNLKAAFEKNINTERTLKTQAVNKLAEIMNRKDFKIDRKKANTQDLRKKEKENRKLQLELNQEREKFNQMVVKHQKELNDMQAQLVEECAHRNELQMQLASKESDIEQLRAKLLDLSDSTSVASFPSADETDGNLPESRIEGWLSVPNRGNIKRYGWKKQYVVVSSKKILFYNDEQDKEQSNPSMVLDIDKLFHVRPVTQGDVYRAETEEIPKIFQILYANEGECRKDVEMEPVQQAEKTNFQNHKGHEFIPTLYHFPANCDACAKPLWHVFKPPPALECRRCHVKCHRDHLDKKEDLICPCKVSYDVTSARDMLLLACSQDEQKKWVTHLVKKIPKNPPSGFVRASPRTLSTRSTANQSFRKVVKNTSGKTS
Sequence of Rho kinase 2 (O75116 whole entry): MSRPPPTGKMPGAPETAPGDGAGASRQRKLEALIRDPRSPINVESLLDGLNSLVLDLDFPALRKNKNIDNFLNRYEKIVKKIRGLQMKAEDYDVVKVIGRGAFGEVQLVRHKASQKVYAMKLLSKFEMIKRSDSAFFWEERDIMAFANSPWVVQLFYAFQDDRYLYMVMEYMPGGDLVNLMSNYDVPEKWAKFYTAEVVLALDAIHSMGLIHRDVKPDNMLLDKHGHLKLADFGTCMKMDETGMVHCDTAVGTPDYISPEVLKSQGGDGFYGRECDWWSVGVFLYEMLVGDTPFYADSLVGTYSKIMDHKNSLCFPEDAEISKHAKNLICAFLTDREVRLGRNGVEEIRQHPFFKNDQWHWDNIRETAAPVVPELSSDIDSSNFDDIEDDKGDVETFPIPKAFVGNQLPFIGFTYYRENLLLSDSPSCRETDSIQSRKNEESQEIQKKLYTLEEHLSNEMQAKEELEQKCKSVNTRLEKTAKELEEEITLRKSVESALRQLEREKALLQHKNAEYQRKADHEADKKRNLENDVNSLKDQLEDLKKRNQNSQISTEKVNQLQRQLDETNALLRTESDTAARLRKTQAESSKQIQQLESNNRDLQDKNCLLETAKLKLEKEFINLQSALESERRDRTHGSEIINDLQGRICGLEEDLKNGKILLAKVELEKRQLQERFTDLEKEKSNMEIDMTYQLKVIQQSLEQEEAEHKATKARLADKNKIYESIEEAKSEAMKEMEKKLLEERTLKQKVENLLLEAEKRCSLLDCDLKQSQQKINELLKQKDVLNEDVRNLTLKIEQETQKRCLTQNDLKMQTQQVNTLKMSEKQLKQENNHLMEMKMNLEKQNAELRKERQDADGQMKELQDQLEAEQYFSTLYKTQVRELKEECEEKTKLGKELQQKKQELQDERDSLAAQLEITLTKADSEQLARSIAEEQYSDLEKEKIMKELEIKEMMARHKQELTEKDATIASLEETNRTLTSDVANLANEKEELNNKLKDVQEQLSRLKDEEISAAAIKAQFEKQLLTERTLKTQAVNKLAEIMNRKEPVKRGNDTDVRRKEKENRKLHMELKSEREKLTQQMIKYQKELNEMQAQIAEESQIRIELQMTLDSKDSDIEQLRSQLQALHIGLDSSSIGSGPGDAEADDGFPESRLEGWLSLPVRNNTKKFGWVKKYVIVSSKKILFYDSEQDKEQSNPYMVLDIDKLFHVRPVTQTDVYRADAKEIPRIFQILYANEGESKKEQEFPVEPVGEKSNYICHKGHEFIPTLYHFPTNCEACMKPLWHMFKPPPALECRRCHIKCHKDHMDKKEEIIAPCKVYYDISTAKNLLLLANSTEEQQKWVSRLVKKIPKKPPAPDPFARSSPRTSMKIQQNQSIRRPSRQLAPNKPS

As to `CC1=C(C(=O)Nc2ccc3[nH]ncc3c2)C(c2ccc(Cl)nc2)n2nc(C(F)(F)F)cc2N1` (single isomer, unassigned) [Example 32B, 7-(6-chloropyridin-3-yl)-N-(1H-indazol-5-yl)-5-methyl-2-(trifluoromethyl)-4,7-dihydropyrazolo[1,5-a]pyrimidine-6-carboxamide], the inhibitory constant (Ki) on Rho kinase 2 and on Rho kinase 1 was under 50 nM in each case.

As for `CC1=C(C(=O)Nc2cc3cn[nH]c3cc2F)C(c2ccc(C(F)(F)F)c(F)c2)n2nnnc2N1` (single isomer, unassigned) [Example 40A, N-(6-fluoro-1H-indazol-5-yl)-7-(3-fluoro-4-(trifluoromethyl)phenyl)-5-methyl-4,7-dihydrotetrazolo[1,5-a]pyrimidine-6-carboxamide], the Ki at Rho kinase 2 and at Rho kinase 1 was under 50 nM in each case.

Regarding `CC1=C(C(=O)Nc2cc3cn[nH]c3cc2F)C(c2ccc(C(F)(F)F)c(F)c2)n2nnnc2N1` (single isomer, unassigned) [Example 40B, N-(6-fluoro-1H-indazol-5-yl)-7-(3-fluoro-4-(trifluoromethyl)phenyl)-5-methyl-4,7-dihydrotetrazolo[1,5-a]pyrimidine-6-carboxamide], the Ki on Rho kinase 2 and at Rho kinase 1 was 50 to 500 nM in each case.

Take `CC1=C(C(=O)Nc2ccc3cnccc3c2)C(c2ccc(C(F)(F)F)cc2)n2nc(CO)cc2N1` (single isomer, unassigned) [Example 43A, 2-(hydroxymethyl)-N-(isoquinolin-6-yl)-5-methyl-7-(4-(trifluoromethyl)phenyl)-4,7-dihydropyrazolo[1,5-a]pyrimidine-6-carboxamide]: the values for the Ki at Rho kinase 2 and at Rho kinase 1 were 50 to 500 nM and over 500 nM, respectively.

In the case of `CC1=C(C(=O)Nc2ccc3cnccc3c2)C(c2ccc(C(F)(F)F)cc2)n2nc(CO)cc2N1` (single isomer, unassigned) [Example 43B, 2-(hydroxymethyl)-N-(isoquinolin-6-yl)-5-methyl-7-(4-(trifluoromethyl)phenyl)-4,7-dihydropyrazolo[1,5-a]pyrimidine-6-carboxamide], the Ki on Rho kinase 2 and at Rho kinase 1 was under 50 nM in each case.

Turning to `CC1=C(C(=O)Nc2ccc3cnccc3c2)C(C2Cc3ccccc3C2)n2nc(CO)cc2N1` (single isomer, unassigned) [Example 60A, 7-(2,3-dihydro-1H-inden-2-yl)-2-(hydroxymethyl)-N-(isoquinolin-6-yl)-5-methyl-4,7-dihydropyrazolo[1,5-a]pyrimidine-6-carboxamide], the Ki on Rho kinase 2 and at Rho kinase 1 was under 50 nM in each case.

Consider `CC1=C(C(=O)Nc2ccc3cnccc3c2)C(C2Cc3ccccc3C2)n2nc(CO)cc2N1` (single isomer, unassigned) [Example 60B, 7-(2,3-dihydro-1H-inden-2-yl)-2-(hydroxymethyl)-N-(isoquinolin-6-yl)-5-methyl-4,7-dihydropyrazolo[1,5-a]pyrimidine-6-carboxamide], for which the Ki at Rho kinase 2 and on Rho kinase 1 was 50 to 500 nM throughout.

Regarding `CC1=C(C(=O)Nc2ccc3cnccc3c2)C(c2ccc(Br)cc2)n2nc(CO)cc2N1` (single isomer, unassigned) [Example 61A, 7-(4-bromophenyl)-2-(hydroxymethyl)-N-(isoquinolin-6-yl)-5-methyl-4,7-dihydropyrazolo[1,5-a]pyrimidine-6-carboxamide], the inhibitory constant (Ki) at Rho kinase 2 and on Rho kinase 1 was under 50 nM in each case.

Take `CC1=C(C(=O)Nc2ccc3cnccc3c2)C(c2ccc(Br)cc2)n2nc(CO)cc2N1` (single isomer, unassigned) [Example 61B, 7-(4-bromophenyl)-2-(hydroxymethyl)-N-(isoquinolin-6-yl)-5-methyl-4,7-dihydropyrazolo[1,5-a]pyrimidine-6-carboxamide]: the Ki at Rho kinase 2 and on Rho kinase 1 was 50 to 500 nM throughout.

In the case of `CC1=C(C(=O)Nc2ccc3cnccc3c2)C(c2ccc(Cl)cc2)n2nc(CO)cc2N1` (single isomer, unassigned) [Example 62A, 7-(4-chlorophenyl)-2-(hydroxymethyl)-N-(isoquinolin-6-yl)-5-methyl-4,7-dihydropyrazolo[1,5-a]pyrimidine-6-carboxamide], the Ki on Rho kinase 2 and at Rho kinase 1 was under 50 nM in each case.

On to `CC1=C(C(=O)Nc2ccc3cnccc3c2)C(c2ccc(Cl)cc2)n2nc(CO)cc2N1` (single isomer, unassigned) [Example 62B, 7-(4-chlorophenyl)-2-(hydroxymethyl)-N-(isoquinolin-6-yl)-5-methyl-4,7-dihydropyrazolo[1,5-a]pyrimidine-6-carboxamide], for which the Ki at Rho kinase 2 and on Rho kinase 1 was 50 to 500 nM each time.

`CC1=C(C(=O)Nc2ccc3cnccc3c2)C(c2ccc(C(F)(F)F)c(F)c2)n2nc(CO)cc2N1` (single isomer, unassigned) [Example 65A, 7-(3-fluoro-4-(trifluoromethyl)phenyl)-2-(hydroxymethyl)-N-(isoquinolin-6-yl)-5-methyl-4,7-dihydropyrazolo[1,5-a]pyrimidine-6-carboxamide]: the Ki at Rho kinase 2 and at Rho kinase 1 was under 50 nM each time.

With `CC1=C(C(=O)Nc2ccc3cnccc3c2)C(c2ccc(C(F)(F)F)c(F)c2)n2nc(CO)cc2N1` (single isomer, unassigned) [Example 65B, 7-(3-fluoro-4-(trifluoromethyl)phenyl)-2-(hydroxymethyl)-N-(isoquinolin-6-yl)-5-methyl-4,7-dihydropyrazolo[1,5-a]pyrimidine-6-carboxamide], the Ki on Rho kinase 2 and at Rho kinase 1 was under 50 nM throughout.

In the case of `CC1=C(C(=O)Nc2ccc3[nH]ncc3c2)C(c2ccc(C(F)(F)F)cc2)n2nc(CO)cc2N1` (single isomer, unassigned) [Example 69A, 2-(hydroxymethyl)-N-(1H-indazol-5-yl)-5-methyl-7-(4-(trifluoromethyl)phenyl)-4,7-dihydropyrazolo[1,5-a]pyrimidine-6-carboxamide], the Ki at Rho kinase 2 and at Rho kinase 1 was 50 to 500 nM throughout.

Turning to `CC1=C(C(=O)Nc2ccc3[nH]ncc3c2)C(c2ccc(C(F)(F)F)cc2)n2nc(CO)cc2N1` (single isomer, unassigned) [Example 69B, 2-(hydroxymethyl)-N-(1H-indazol-5-yl)-5-methyl-7-(4-(trifluoromethyl)phenyl)-4,7-dihydropyrazolo[1,5-a]pyrimidine-6-carboxamide], the inhibitory constant (Ki) on Rho kinase 2 and on Rho kinase 1 was under 50 nM in each case.

Take `CC1=C(C(=O)Nc2ccc3[nH]ncc3c2)C(c2ccc(F)cc2)n2nc(CO)cc2N1` (single isomer, unassigned) [Example 71A, 7-(4-fluorophenyl)-2-(hydroxymethyl)-N-(1H-indazol-5-yl)-5-methyl-4,7-dihydropyrazolo[1,5-a]pyrimidine-6-carboxamide]: the inhibitory constant (Ki) on Rho kinase 2 and on Rho kinase 1 was under 50 nM in each case.

For `CC1=C(C(=O)Nc2ccc3[nH]ncc3c2)C(c2ccc(F)cc2)n2nc(CO)cc2N1` (single isomer, unassigned) [Example 71B, 7-(4-fluorophenyl)-2-(hydroxymethyl)-N-(1H-indazol-5-yl)-5-methyl-4,7-dihydropyrazolo[1,5-a]pyrimidine-6-carboxamide], the inhibitory constant (Ki) at Rho kinase 2 and on Rho kinase 1 was over 500 nM each time.

`CC1=C(C(=O)Nc2ccc3cnccc3c2)C(C2COc3ccccc3O2)n2nc(CO)cc2N1` (single isomer, unassigned) [Example 72A, 7-(2,3-dihydrobenzo[b][1,4]dioxin-2-yl)-2-(hydroxymethyl)-N-(isoquinolin-6-yl)-5-methyl-4,7-dihydropyrazolo[1,5-a]pyrimidine-6-carboxamide]: the Ki on Rho kinase 2 and at Rho kinase 1 was under 50 nM each time.

Consider `CC1=C(C(=O)Nc2ccc3cnccc3c2)C(C2COc3ccccc3O2)n2nc(CO)cc2N1` (single isomer, unassigned) [Example 72B, 7-(2,3-dihydrobenzo[b][1,4]dioxin-2-yl)-2-(hydroxymethyl)-N-(isoquinolin-6-yl)-5-methyl-4,7-dihydropyrazolo[1,5-a]pyrimidine-6-carboxamide], for which the Ki at Rho kinase 2 and at Rho kinase 1 was under 50 nM each time.

Consider `CC1=C(C(=O)Nc2ccc3cnccc3c2)C(C2COc3ccccc3O2)n2nc(CO)cc2N1` (single isomer, unassigned) [Example 72C, 7-(2,3-dihydrobenzo[b][1,4]dioxin-2-yl)-2-(hydroxymethyl)-N-(isoquinolin-6-yl)-5-methyl-4,7-dihydropyrazolo[1,5-a]pyrimidine-6-carboxamide], for which the inhibition constant (Ki) on Rho kinase 2 and on Rho kinase 1 was 50 to 500 nM throughout.

As for `CC1=C(C(=O)Nc2ccc3cnccc3c2)C(C2COc3ccccc3O2)n2nc(CO)cc2N1` (single isomer, unassigned) [Example 72D, 7-(2,3-dihydrobenzo[b][1,4]dioxin-2-yl)-2-(hydroxymethyl)-N-(isoquinolin-6-yl)-5-methyl-4,7-dihydropyrazolo[1,5-a]pyrimidine-6-carboxamide], the Ki at Rho kinase 2 and at Rho kinase 1 was 50 to 500 nM each time.
